Reference: patent publication US6645983B1, “Pharmaceutical compositions comprising 4-quinolones for treating cancers” (Laboratoire L. Lafon, priority 1999, dated 2003)
Read-outs that look alike come from different tables or passages of the source. One block for each compound: values may come before it.

Legend:
A-427 = assay: MTT test, cytotoxic activity on non-clonogenic cell lines; type: cell-based; details: Homo sapiens, 10^−5 M, mean value
In short: (§1)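 Compounds span 10^−5 to 10^−10 M, with solvent-treated wells as control, and the formazan is quantified by absorbance after DMSO solubilization.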

A549 = assay: as above; type: cell-based; details: Homo sapiens, 10^−5 M, mean value
In short: as §1

HCT-15 [1] = assay: as above; type: cell-based; details: Homo sapiens, mean value
In short: as §1

LoVo = assay: as above; type: cell-based; details: Homo sapiens, 10^−5 M, mean value
In short: as §1

MCF7 = assay: as above; type: cell-based; details: Homo sapiens, 10^−5 M, mean value
In short: as §1

PC-3 = assay: as above; type: cell-based; details: Homo sapiens, 10^−5 M, mean value
In short: as §1

T-47D = assay: as above; type: cell-based; details: Homo sapiens, T47D, 10^−5 M, mean value
In short: as §1

U-373MG = assay: as above; type: cell-based; details: Homo sapiens, U373 MG, 10^−5 M, mean value
In short: as §1

U-87MG = assay: as above; type: cell-based; details: Homo sapiens, 10^−5 M, mean value
In short: as §1

SW1088 = assay: as above; type: cell-based; details: Homo sapiens, 10^−5 M, mean value
In short: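 Human astrocytoma SW1088 cells seeded, grown 24 h at 37° C, 5% CO2, then exposed to compounds at 10^−5 to 10^−10 M versus solvent control. Viability by MTT reduction: 3 h MTT incubation, formazan dissolved in DMSO and read by spectrophotometry.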

J82 = assay: as above; type: cell-based; details: Homo sapiens, 10^−5 M, mean value
In short: (§2)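 Human bladder cancer lines were seeded at 20 000–50 000 cells/ml and, after 24 h, exposed to compounds at 10^−5 to 10^−10 M against a solvent control. Formazan was dissolved in DMSO and viability was read by spectrophotometric optical density.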

T24 = assay: as above; type: cell-based; details: Homo sapiens, T-24, 10^−5 M, mean value
In short: as §2

HCT-15 [2] = system: HCT-15
HCT-15 [3] = assay: cells; details: Homo sapiens, HCT-15, read-out: concentration that inhibits by 50% (IC50) the in vitro cell growth of the HCT-15 line
[4] = 72 hours of incubation, control condition = 100%, read-out: mean optical density as percentage of control, A-427
[5] = 72 hours of incubation, control condition = 100%, read-out: mean optical density as percentage of control, A549
[6] = 10^−5 M, 72 hours of incubation, control condition = 100%, read-out: mean optical density as percentage of control, HCT-16
[7] = 72 hours of incubation, control condition = 100%, read-out: mean optical density as percentage of control, LoVo
[8] = 72 hours of incubation, control condition = 100%, read-out: mean optical density as percentage of control, MCF7
[9] = 72 hours of incubation, control condition = 100%, read-out: mean optical density as percentage of control, PC-3
[10] = 72 hours of incubation, control condition = 100%, read-out: mean optical density as percentage of control, T-47D
[11] = 72 hours of incubation, control condition = 100%, read-out: mean optical density as percentage of control, U-373MG
[12] = U-87 MG, 72 hours of incubation, control condition = 100%, read-out: mean optical density as percentage of control, U-87MG
[13] = 72 hours of incubation, control condition = 100%, read-out: mean optical density as percentage of control, SW1088
[14] = 72 hours of incubation, control condition = 100%, read-out: mean optical density as percentage of control, J82
[15] = 72 hours of incubation, control condition = 100%, read-out: mean optical density as percentage of control, T24
[16] = 72 hours incubation, MTT, read-out: mean optical density, expressed as percentage relative to the mean optical density under the control condition (100%)

Structure (SMILES): COc1ccc(-c2cnc3c(OC)ccc(OC)c3c2OCCN(C)C)cc1 [CRL8370, N-{2-[5,8-Dimethoxy-3-(4-methoxyphenyl)-4-quinolyl]oxy}ethyl-N,N-dimethylamine]
viability at 10 µM (A-427; [4]): 76%
viability at 10 µM (A549; [5]): 85.6%
viability at 10 µM (HCT-15 [1]; [6]): 103%
viability at 10 µM (LoVo; [7]): 95.1%
viability at 10 µM (MCF7; [8]): 88.5%
viability at 10 µM (PC-3; [9]): 87.1%
viability at 10 µM (T-47D; [10]): 88.5%
viability at 10 µM (U-373MG; [11]): 105%
viability at 10 µM (U-87MG; [12]): 104%
viability at 10 µM (SW1088; [13]): 99.4%
viability at 10 µM (J82; [14]): 102%
viability at 10 µM (T24; [15]): 74.3%
melting point: 69 to 70 °C
amplification compared with the activity of adriamycin alone (gain / activity alone) (HCT-15 [2]; 10^−5 M compound + 10^−7 M adriamycin, 15.2/42.8): about 35%

Structure (SMILES): COc1ccc(-c2cn(CCCC#N)c3c(OC)ccc(OC)c3c2=O)cc1 [CRL8421, 4-[5,8-Dimethoxy-3-(4-methoxyphenyl)-4-oxo-1,4-dihydro-1-quinolinyl]butanenitrile]
viability at 10 µM (A-427; [4]): 33%
viability at 10 µM (A549; [5]): 97.5%
viability at 10 µM (HCT-15 [1]; [6]): 50%
viability at 10 µM (LoVo; [7]): 60.8%
viability at 10 µM (MCF7; [8]): 49.5%
viability at 10 µM (PC-3; [9]): 61.4%
viability at 10 µM (T-47D; [10]): 83.5%
viability at 10 µM (U-373MG; [11]): 81.7%
viability at 10 µM (U-87MG; [12]): 29.9%
viability at 10 µM (SW1088; [13]): 51%
viability at 10 µM (J82; [14]): 47.1%
viability at 10 µM (T24; [15]): 40.3%
melting point: 126 to 127 °C

Structure (SMILES): COc1ccc(-c2cn(CCN(C)C)c3cc(OC)ccc3c2=O)cc1 [CRL8469, N-[3-(Dimethylamino)ethyl]-7-methoxy-3-(4-methoxyphenyl)-1,4-dihydro-4-quinolinone]
viability at 10 µM (A-427; [16]): 102%
viability at 10 µM (A549; [16]): 100%
viability at 10 µM (HCT-15 [1]; HCT-16, 10^−5 M, 72 hours incubation, MTT, read-out: mean optical density, expressed as percentage relative to the mean optical density under the control condition (100%)): 101%
viability at 10 µM (LoVo; [16]): 95.9%
viability at 10 µM (MCF7; [16]): 97.6%
viability at 10 µM (PC-3; [16]): 99.9%
viability at 10 µM (T-47D; T-47D, 72 hours incubation, MTT, read-out: mean optical density, expressed as percentage relative to the mean optical density under the control condition (100%)): 103%
viability at 10 µM (U-373MG; U-373MG, 72 hours incubation, MTT, read-out: mean optical density, expressed as percentage relative to the mean optical density under the control condition (100%)): 102%
viability at 10 µM (U-87MG; U-87MG, 72 hours incubation, MTT, read-out: mean optical density, expressed as percentage relative to the mean optical density under the control condition (100%)): 108%
viability at 10 µM (SW1088; [16]): 105%
viability at 10 µM (J82; [16]): 89.5%
viability at 10 µM (T24; T24, 72 hours incubation, MTT, read-out: mean optical density, expressed as percentage relative to the mean optical density under the control condition (100%)): 98.1%
melting point: 142 to 143 °C

Structure (SMILES): COc1ccc(-c2cn(CCOS(=O)(=O)c3ccc(C)cc3)c3c(OC)ccc(OC)c3c2=O)cc1 [CRL8517, 4-2-[5,8-Dimethoxy-3-(4-methoxyphenyl)-4-oxo-1,4-dihydro-1-quinolyl]ethyl p-Toluenesulfonate]
melting point: 85 to 86 °C

Structure (SMILES): COc1ccc(-c2cn(CCC#N)c3c(OC)ccc(OC)c3c2=O)cc1 [CRL8518, 3-[5,8-Dimethoxy-3-(4-methoxyphenyl)-4-oxo-1,4-dihydro-1-quinolinyl]propanenitrile]
melting point: 79 to 80 °C

Structure (SMILES): COc1ccc(-c2cnc3c(OC)ccc(OC)c3c2OCCCCC#N)cc1 [CRL8519, {[5,8-Dimethoxy-3-(4-methoxyphenyl)-4-quinolyl]oxy}pentanenitrile]
melting point: 126 to 127 °C

Results, then the compound that gave them:

melting point: 154 to 155 °C
Structure (SMILES): C=CCNc1cc(OC)cc2c1c(=O)c(-c1ccc(OC)cc1)cn2C [CRL8520, 5-Allylamino-7-methoxy-3-(4-methoxyphenyl)-1-methyl-1,4-dihydro-4-quinolinone]

melting point: 144 to 145 °C
Structure (SMILES): COc1ccc(CNc2cc(OC)cc3c2c(=O)c(-c2ccc(OC)cc2)cn3C)cc1 [CRL8521, 5-(4-Methoxybenzylamino)-7-methoxy-3-(4-methoxyphenyl)-1-methyl-1,4-dihydro-4-quinolinone]

melting point: 206 to 207 °C
Structure (SMILES): COc1ccc(-c2cn(CC#N)c3cc(OC)ccc3c2=O)cc1 [CRL8522, [7-Methoxy-3-(4-methoxyphenyl)-4-oxo-1,4-dihydro-1-quinolinyl]acetonitrile]

melting point: 158 to 159 °C
Structure (SMILES): CCN(CC)C(=O)CCn1cc(-c2ccc(OC)cc2)c(=O)c2ccc(OC)cc21 [CRL8525, N,N-Diethyl-3-[7-methoxy-3-(4-methoxyphenyl)-4-oxo-1,4-dihydro-1-quinolinyl]propanamide]

inhibition (HCT-15 [2]): 42.8%
IC50 (HCT-15 [3]): 100 nM
Structure (SMILES): COc1cccc2c1C(=O)c1c(O)c3c(c(O)c1C2=O)C[C@@](O)(C(=O)CO)C[C@@H]3O[C@H]1C[C@H](N)[C@H](O)[C@H](C)O1 [adriamycin, reference compound]

IC50 (HCT-15 [3]): 1000 nM
Structure (SMILES): COc1cc([C@@H]2c3cc4c(cc3[C@@H](O[C@@H]3O[C@@H]5CO[C@@H](C)O[C@H]5[C@H](O)[C@H]3O)[C@H]3COC(=O)[C@H]23)OCO4)cc(OC)c1O [etoposide]
